Measured values taken from US7132417B2, “2-phenyl-1-[4-(2-aminoethoxy)-benzyl]-indoles as estrogenic agents” (Wyeth, priority 1996, dated 2006).
Where a name gives a salt, the structure may show the parent alone.

Tests used:
estrogen receptor [1] = target: T1, estrogen receptor (Homo sapiens, UniProt P03372); assay: In vitro estrogen receptor binding assay ([3H]-17β-estradiol competition); parameters: expressed in transfected cells; host or cells: CHO cells (100,000 g cytosol); settings: read-out: Receptor Binding IC50's
T1 sequence (P03372 1-595): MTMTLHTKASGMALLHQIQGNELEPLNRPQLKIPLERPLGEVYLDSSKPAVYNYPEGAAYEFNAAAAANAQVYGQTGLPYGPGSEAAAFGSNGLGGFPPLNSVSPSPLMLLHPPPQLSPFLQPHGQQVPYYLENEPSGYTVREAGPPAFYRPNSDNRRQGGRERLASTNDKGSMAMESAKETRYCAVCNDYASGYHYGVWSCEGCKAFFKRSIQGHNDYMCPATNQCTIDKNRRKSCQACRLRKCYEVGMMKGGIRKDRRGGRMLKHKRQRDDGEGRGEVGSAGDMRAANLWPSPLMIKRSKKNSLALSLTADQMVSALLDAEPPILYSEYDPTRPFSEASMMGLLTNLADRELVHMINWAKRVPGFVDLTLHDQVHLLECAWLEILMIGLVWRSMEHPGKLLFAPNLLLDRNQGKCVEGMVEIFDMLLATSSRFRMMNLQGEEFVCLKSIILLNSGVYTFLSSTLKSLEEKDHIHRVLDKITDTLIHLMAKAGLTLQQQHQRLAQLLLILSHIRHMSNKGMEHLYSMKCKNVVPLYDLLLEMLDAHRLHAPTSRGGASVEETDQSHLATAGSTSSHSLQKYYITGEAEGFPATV
Protocol: In Vitro Estrogen Receptor Binding Assay
CHO cells overexpressing the estrogen receptor were grown in 150 mm^2 dishes in DMEM+10% dextran coated charcoal, stripped fetal bovine serum. The plates were washed twice with PBS and once with 10 mM Tris-HCl, pH 7.4, 1 mM EDTA. Cells were harvested by scraping the surface and then the cell suspension was placed on ice. Cells were disrupted with a hand-held motorized tissue grinder using two, 10-second bursts. […] The cytosol was then frozen and stored at −80° C. Protein concentration of the cytosol was estimated using the BCA assay with reference standard protein.
100 uG/100 uL of the receptor preparation was aliquoted per well. […] The plate was incubated at room temperature for 2.5 h. […] 200 uL of the supernatant solution was then removed for scintillation counting. Samples were counted to 2% or 10 minutes, whichever occurs first. […] Also, wells containing radioactivity but no cytosol were processed with charcoal to estimate unremovable DPM of [^3H]
Counts per minute (CPM) of radioactivity were automatically converted to disintegrated per minute (DPM) by the Beckman LS 7500 Scintillation Counter using a set of quenched standards to generate a H No. for each sample.
For the generation of IC50 curves, % binding is plotted vs compound. […] For a description of these methods, see Hulme, E. C., ed. […] Receptor-Ligand Interactions: A Practical Approach. IRL Press, New York. (see especially chapter 8).

estrogen receptor [2] = target: T1, estrogen receptor; assay: 2X VIT ERE infection (luciferase) assay; assay type: cell-based; parameters: expressed in transfected cells; host or cells: Chinese Hamster Ovary cells (CHO), stably transfected; settings: for Infection Luciferase Activity 1 uM + 17β estradiol: 1 uM compound + 1 nM 17β-estradiol (test for estrogen antagonism); for Infection Luciferase Activity 1 uM: 1 uM compound, percentage of activity as compared to 17β-estradiol
Protocol: Method No. 18 2X VIT ERE Infection Assay Cell Maintenance and Treatment
Chinese Hamster Ovary cells (CHO) which had been stably transfected with the human estrogen receptor were maintained in DMEM+10% fetal bovine serum (FBS). 48 h prior to treatment the growth medium was replaced with DMEM lacking phenol red +10% dextran coated charcoal stripped FBS (treatment medium). Cells were plated at a density of 5000 cells/well in 96-well plates containing 200 µL of medium/well.
Reporter DNA (Promega plasmid pGL2 containing two tandem copies of the vitellogenin ERE in front of the minimal thymidine kinase promoter driving the luciferase gene) was combined with the B-galactosidase expression plasmid pCH110 (Pharmacia) and carrier DNA (pTZ18U) in the following ratio:
20 uL of this mixture was added to each well of cells and remained on the cells for 16 h. […] Each treatment condition was performed on 8 wells (n=8) which were incubated for 24 h prior to the luciferase assay.
After removing the PBS, 25 uL of Promega lysis buffer was added to each well and allowed to stand at room temperature for 15 min, followed by 15 min at −80° C. and 15 min at 37° C. 20 uL of lysate was transferred to an opaque 96 well plate for luciferase activity evaluation and the remaining lysate (5 uL) was used for the B-galactosidase activity evaluation (normalize transfection). The luciferan substrate (Promega) was added in 100 uL aliquots to each well automatically by the luminometer and the light produced (relative light units) was read 10 seconds after addition.
To the remaining 5 uL of lysate 45 uL of PBS was added. Then 50 uL of Promega B-galactosidase 2× assay buffer was added, mixed well and incubated at 37° C. for 1 hour. A plate containing a standard curve (0.1 to 1.5 milliunits in triplicate) was set up for each experimental run. The plates were analyzed on a Molecular Devices spectrophotometric plate reader at 410 nm. The optical densities for the unknown were converted to milliunits of activity by mathematical extrapolation from the standard curve.
The luciferase data was generated as relative light units (RLUs) accumulated during a 10 second measurement and automatically transferred to a JMP (SAS Inc) file where background RLUs were subtracted. The B-galactosidase values were automatically imported into the file and these values were divided into the RLUs to normalize the data. The mean and standard deviations were determined from a n=8 for each treatment. […] These techniques are described by Tzukerman, M. T., Esty, A., Santiso-Mere, D., Danielian, P., Parker, M. G., Stein, R. B., Pike, J. W. and McDonnel, D. P. (1994).

SMILES | IC50 (estrogen receptor [1]) | Infection Luciferase Activity 1 uM + 17β estradiol (estrogen receptor [2]) | Infection Luciferase Activity 1 uM (estrogen receptor [2])
Cc1c(-c2ccc(O)cc2)n(Cc2ccc(OCCCN3CCCCC3)cc2)c2ccc(O)cc12 [Example No. 166, 2-(4-Hydroxy-phenyl)-3-methyl-1-{4-[3-(piperidin-1-yl)-propoxy]-benzyl}-1H-indol-5-ol] | 99 nM | – | –
Cc1c(-c2ccc(O)cc2)n(Cc2ccc(OCCN3CCCCC3)cc2)c2ccccc12 [compound 86, 4-{3-Methyl-1-[4-(2-piperidin-1-yl-ethoxy)-benzyl]-1H-indol-2-yl}-phenol hydrochloride] | – | 2% | −5%
COc1ccc2c(c1)c(C)c(-c1ccc(O)cc1)n2Cc1ccc(OCCN2CCCCC2)cc1 [compound 88, 4-{5-Methoxy-3-methyl-1-{4-[2-(piperidin-1-yl)-ethoxy]-benzyl}-1H-indol-2-yl}-phenol] | – | 44% | 4%
COc1ccc(-c2c(C)c3cc(O)ccc3n2Cc2ccc(OCCN3CCCCC3)cc2)cc1 [compound 89, 2-(4-methoxy-phenyl)-3-methyl-1-{4-[2-(piperidin-1-yl)-ethoxy]-benzyl}-1H-indol-5-ol] | – | 18% | 16%
COc1ccc(-c2c(C)c3cc(OC)ccc3n2Cc2ccc(OCCN3CCCCC3)cc2)cc1 [compound 90, 5-Methoxy-2-(4-methoxy-phenyl)-3-methyl-1-[4-(2-piperidin-1-yl-ethoxy)-benzyl]-1H-indole] | – | 58% | 3%
CCOc1ccc(-c2c(C)c3cc(O)ccc3n2Cc2ccc(OCCN3CCCCC3)cc2)cc1 [compound 92, 2-(4-Ethoxy-phenyl)-3-methyl-1-[4-(2-piperidin-1-yl-ethoxy)-benzyl]-1H-indol-5-ol] | – | −2% | −4%
CCOc1ccc(-c2c(C)c3cc(O)ccc3n2Cc2ccc(OCCN3CCCCCC3)cc2)cc1 [compound 93, 1-[4-(2-Azepan-1-yl-ethoxy)-benzyl]-2-(4-ethoxy-phenyl)-3-methyl-1H-indol-5-ol] | – | −2% | −3%
Cc1c(-c2ccc(O)cc2)n(Cc2ccc(OCCN3CCCCC3)cc2)c2ccc(F)cc12 [compound 94, 4-{5-Fluoro-3-methyl-1-[4-(2-piperidin-1-yl-ethoxy)-benzyl]-1H-indol-2-yl}-phenol] | – | 15% | −5%
Cc1c(-c2ccc(O)cc2)n(Cc2ccc(OCCN3CCCC3)cc2)c2ccc(O)cc12 [compound 96, 2-(4-Hydroxy-phenyl)-3-methyl-1-[4-(2-pyrollidin-1-yl-ethoxy)-benzyl]-1H-indol-5-ol] | – | 8% | 12%
CCCCN(C)CCOc1ccc(Cn2c(-c3ccc(O)cc3)c(C)c3cc(O)ccc32)cc1 [compound 105, 1-{4-[2-(Butyl-methyl-amino)-ethoxy]-benzyl}-2-(4-hydroxy-phenyl)-3-methyl-1H-indol-5-ol] | 28 nM | – | –
Cc1c(-c2ccc(O)cc2)n(Cc2ccc(OCCN3CCCC(C)C3)cc2)c2ccc(O)cc12 (centres unmarked) [compound 109, 2-(4-Hydroxy-phenyl)-3-methyl-1-{4-[2-(3-methyl-piperdin-1-yl)-ethoxy]-benzyl}-1H-indol-5-ol] | 170 nM | – | –
Cc1c(-c2ccc(F)cc2)n(Cc2ccc(OCCN3CCCCC3)cc2)c2ccc(O)cc12 [compound 116, 2-(4-Fluoro-phenyl)-3-methyl-1-[4-(2-piperidine-1-yl-ethoxy)-benzyl]-1H-indol-5-ol] | – | 1% | −1%
Cc1c(-c2ccc(F)cc2)n(Cc2ccc(OCCN3CCCCCC3)cc2)c2ccc(O)cc12 [compound 117, 1-[4-(2-Azepan-1-yl-ethoxy)-benzyl]-2-(4-fluoro-phenyl)-3-methyl-1H-indol-5-ol] | – | 1% | 0%
Cc1c(-c2ccc3c(c2)OCO3)n(Cc2ccc(OCCN3CCCCC3)cc2)c2ccc(O)cc12 [compound 119, 2-Benzo[1,3]dioxol-5-yl-3-methyl-1-[4-(2-piperidin-1-yl-ethoxy)-benzyl]-1H-indol-5-ol] | – | −1% | −1%
Cc1c(-c2ccc(C(F)(F)F)cc2)n(Cc2ccc(OCCN3CCCCC3)cc2)c2ccc(O)cc12 [compound 123, 3-Methyl-1-[4-(2-piperidin-1-yl-ethoxy)-benzyl]-2-(4-trifluoromethyl-phenyl)-1H-indol-5-ol] | 170 nM | – | –
COc1ccc(-c2c(C)c3cc(O)ccc3n2Cc2ccc(OCCN3CCCCC3)cc2)c(OC)c1 [compound 126, 2-(2,4-Dimethoxy-phenyl)-3-methyl-1-[4-(2-piperidin-1-yl-ethoxy)-benzyl]-1H-indol-5-ol] | – | 0% | −1%
Cc1c(-c2cccc(O)c2)n(Cc2ccc(OCCN3CCCCC3)cc2)c2ccc(O)cc12 [compound 127, 2-(3-Hydroxy-phenyl)-3-methyl-1-[4-(2-piperidin-1-yl-ethoxy)-benzyl]-1H-indol-5-ol] | 19 nM | – | –
Cc1c(-c2ccc(O)c(F)c2)n(Cc2ccc(OCCN3CCCCC3)cc2)c2ccc(O)cc12 [compound 129, 2-(3-Fluoro-4-hydroxy-phenyl)-3-methyl-1-[4-(2-piperidin-1-yl-ethoxy)-benzyl]-1H-indol-5-ol] | 5.5 nM | – | –
Cc1c(-c2ccc(O)c(F)c2)n(Cc2ccc(OCCN3CCCCCC3)cc2)c2ccc(O)cc12 [compound 130, 2-(3-Fluoro-4-hydroxy-phenyl)-3-methyl-1-[4-(azepan-1-yl-ethoxy)-benzyl]-1H-indol-5-ol] | 13 nM | – | –
COc1cccc(-c2c(C)c3cc(O)ccc3n2Cc2ccc(OCCN3CCCCC3)cc2)c1 [compound 131, 2-(3-Methoxy-phenyl)-3-methyl-1-[4-(2-piperidin-1-yl-ethoxy)-benzyl]-1H-indole-5-ol] | 120 nM | – | –
